# Measured values from publication PMC3432467 (2012).
# Target: flavodoxin II (apoflavodoxin) (Azotobacter vinelandii, UniProt P00324, C70A)
# Assay: FMN fluorescence increase on dilution of holoprotein
# Assay type: binding
# Chain of flavodoxin II (apoflavodoxin) (P00324 2-180 C70A): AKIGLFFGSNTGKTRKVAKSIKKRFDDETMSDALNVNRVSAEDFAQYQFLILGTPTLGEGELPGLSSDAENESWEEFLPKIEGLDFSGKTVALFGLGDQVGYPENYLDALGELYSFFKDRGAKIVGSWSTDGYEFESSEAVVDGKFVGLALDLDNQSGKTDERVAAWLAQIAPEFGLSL
smiles,measurement,value
Cc1cc2nc3c(=O)[nH]c(=O)nc-3n(C[C@H](O)[C@H](O)[C@H](O)COP(=O)(O)O)c2cc1C [flavin mononucleotide],Kd,3.82 pM
